{"source": "patent US11471506B2", "about": "“VIP antagonists and uses in treating cancer” (Emory University, priority 2018, dated 2022)", "key": {"[1]": {"test": "in vitro stability of the peptide on the nanoparticle", "assay_type": "physicochemical", "conditions": "nanoparticle-conjugated peptide"}, "[2]": {"tested_on": "T cells", "test": "in vitro T cell proliferation in response to stimulation with anti-CD3 antibodies, with or without exogenous VIP", "assay_type": "cell-based", "conditions": "for reversal / block of the suppressive effect of exogenous VIP on T cell proliferation: exogenous VIP peptide added", "procedure": "Whether VIPhyb treatment would enhance T cell activation and cytotoxicity in response to melanoma, which can be highly immunogenic, was tested.\nThe anticancer activity of treatment with VIPhyb appears to be T cell mediated."}, "[3]": {"tested_on": "B16F1 cells", "test": "B16F1 melanoma syngeneic model in B6 Albino mice, VIPhyb alone", "assay_type": "in vivo, mouse", "procedure": "To investigate VIPhyb as an immunotherapy for melanoma, and to determine the best route of administration, Luciferase-expression B16F1 cells were injected into B6 Albino syngeneic recipients and given 10 μg of VIPhyb peritumorally or subcutaneously on the contralateral flank beginning 1 day before tumor inoculation and continuing daily until the experimental endpoint.\nWhether VIPhyb has an effect on adaptive immunity was testes. Mice with tumors that exceeded 500 mm^3 in volume were euthanized and their splenocytes phenotyped using flow cytometry. Blood was also collected for a complete blood count (CBC) to determine amount of peripheral white blood cells (WBCs). Of particular interest was the expansion of CD8+ T cells to corroborate the in vitro data, and expression of the inhibitory molecule PD-1."}, "[4]": {"tested_on": "B16F10 cells", "test": "B16F10 melanoma model in B6 Albino mice, VIPhyb and/or anti-PD-1 antibody", "assay_type": "in vivo, mouse", "conditions": "VIPhyb 10 μg s.c. daily for 10 days, PD-1 antibody 200 μg i.p. every 3 days, three doses, versus untreated", "procedure": "Tumor volumes were calculated as […].\nB16F10 cells were injected into B6 Albino mice. VIPhyb (10 μg) was administered subcutaneously every day for 10 days. Three doses of 200 μg of an PD-1 antibody was intraperitoneally administered every 3 days. A combination both VIPhyb and the PD-1 antibody were also administered."}, "[5]": {"tested_on": "KPC luc pancreatic cancer cells", "test": "MTT assay of viable KPC luc cells after VIPhyb", "assay_type": "cell-based, murine", "conditions": "0, 0.5, 1, 3 and 5 uM VIPhyb, 24 hours", "procedure": "KPC luc pancreatic cancer cells were cultured in a 96 well plate for 24 hours with different concentrations of VIPhyb (0, 0.5, 1, 3 and 5 uM). Number of viable cells after 24 hours were quantified via MTT assay."}, "[6]": {"tested_on": "melanoma", "test": "direct effect of VIPhyb on melanoma cells", "assay_type": "cell-based", "conditions": "melanoma expressing VPAC2"}, "[7]": {"tested_on": "luciferase expressing splenocytes from B6 mice", "test": "splenocyte co-culture with irradiated B16F1 and B16F10 cells, proliferation by BLI", "assay_type": "cell-based, mouse", "conditions": "co-culture with irradiated B16 cells, anti-CD3 pre-coated plates, low-dose IL-2, 3 days", "procedure": "Splenocytes isolated from 3 naïve luciferase+ B6 mouse were cultured with irradiated B16 cells and with or without VIPhyb in triplicate, and proliferation measured with BLI.\nWhether combination of a VIPhyb with a PD-1 inhibitor could enhance an adaptive immune response to the more aggressive B16F10 model in vitro was investigated. Therefore, irradiated B16F1 and B16F10 cells were co-cultured with luciferase expressing splenocytes from B6 mice. Cells were placed in 96-well plates pre-coated with anti-CD3 antibody and low-dose recombinant murine IL-2 for 3 days and assessed proliferation by BLI."}}, "note": "“Also recorded” adds a separate entry of the source. Ends that are not written are not given here.", "data": [{"substance": "VIPhyb-NP: VIPhyb with C-terminal GGGGSC linker (SEQ ID NO: 3) conjugated to a 30 nm Pluronic-stabilized polypropylene sulfide nanoparticle (KPRRPYTDNYTRLRKQMAVKKYLNSILNGGGGSC; also: conjugated to 30 nm Pluronic-stabilized polypropylene sulfide nanoparticle)", "values": [{"measurement": "stabilization of the peptide in vitro", "setting": "[1]", "value": "stabilize the peptide in vitro"}, {"measurement": "in vitro T cell proliferation in response to stimulation with anti-CD3 antibodies", "setting": "[2]", "value": "conserved"}, {"measurement": "reversal / block of the suppressive effect of exogenous VIP on T cell proliferation", "setting": "[2]", "value": "able to block the effects of exogenous VIP at higher concentrations"}, {"measurement": "potency of the nanoparticle formulation", "setting": "[2]; nanoparticle formulation versus free peptide", "value": "increased potency"}]}, {"substance": "KPRRPYTDNYTRLRKQMAVKKYLNSILN [VIPhyb, hybrid peptide of neurotensin (6-11) and VIP (7-28); antagonist of VIP signalling]", "values": [{"measurement": "survival", "setting": "[3]; B16F1, 10 μg VIPhyb daily", "value": "no significant difference"}, {"measurement": "tumor volume / tumor growth", "setting": "[3]; B16F1, 10 μg VIPhyb daily, digital calipers twice weekly, versus untreated", "value": "no significant change; also recorded: did not have a significant effect; also recorded: does not affect tumor size"}, {"measurement": "overall tumor burden by bioluminescent imaging", "setting": "[3]; B16F1, once weekly BLI", "value": "no tumor reduction"}, {"measurement": "peripheral WBCs", "setting": "[3]; peripheral blood, complete blood count", "value": "nonsignificant modest increase"}, {"measurement": "tumor burden between the two routes of administration", "setting": "[3]; peritumorally versus subcutaneously on the contralateral flank", "value": "no difference in tumor burden"}, {"measurement": "B cells", "setting": "[3]; spleen upon euthanasia", "value": "nonsignificant increase"}, {"measurement": "NK cells", "setting": "[3]; spleen upon euthanasia", "value": "nonsignificant increase"}, {"measurement": "dendritic cell subtypes", "setting": "[3]; spleen upon euthanasia", "value": "nonsignificant increase"}, {"measurement": "CD4+ T cells", "setting": "[3]; spleen upon euthanasia, flow cytometry", "value": "nonsignificant modest increase"}, {"measurement": "CD8+ T cells", "setting": "[3]; spleen upon euthanasia, flow cytometry, versus PBS/saline-treated controls", "value": "significantly more; also recorded: Increased CD8+ T cell Proliferation; also recorded: more effector CD8+ T cells; also recorded: bolsters CD8+ proliferation"}, {"measurement": "frequency of IFNγ, TNF, Granzyme B, and IL-2-producing cells in the CD4+ and CD8+ compartments", "setting": "[3]; spleen, intracellular cytokine staining, versus PBS treated controls", "value": "no significant difference"}, {"measurement": "frequency of CD4+ and CD8+ T cells expressing PD-1, CTLA-4, and Lag-3", "setting": "[3]; spleen, versus PBS treated controls", "value": "no significant difference"}, {"measurement": "in vitro T cell proliferation in response to stimulation with anti-CD3 antibodies", "setting": "[2]", "value": "dose-dependent enhancement"}, {"measurement": "reversal / block of the suppressive effect of exogenous VIP on T cell proliferation", "setting": "[2]", "value": "reversal of the suppressive effect of exogenous VIP peptide; also recorded: reversed exogenous VIP mediated splenic T cell suppression"}, {"measurement": "tumor volume / tumor growth", "setting": "[4]", "value": "lower average tumor volume"}, {"measurement": "number of viable cells (direct killing)", "setting": "[5]", "value": "does not directly kill"}, {"measurement": "direct effect on melanoma growth, invasiveness, and modulation of inhibitory surface molecules", "setting": "[6]", "value": "absence of a direct effect"}, {"measurement": "splenocyte / T cell proliferation", "setting": "[7]", "value": "not enough to promote expansion of splenocytes; also recorded: lack of splenocyte proliferation"}]}]}
